These are literature values, as cited in patent US5179079A, “Nasal formulation and intranasal administration therewith” (Novo Nordisk A/S, priority 1986, dated 1993).

For the data set the following is noted: compared with intravenous administration.

Take `CC(=O)[C@H]1CC[C@H]2[C@@H]3CCC4=CC(=O)CC[C@]4(C)[C@H]3CC[C@]12C` [progesterone]: the “blood levels after absorption from the nasal cavity” value is “blood levels almost equal to intraveneous administration”. Consider `CC(C)NCC(O)COc1cccc2ccccc12` (centres unmarked) [propranolol], for which the “blood levels after absorption from the nasal cavity” value is given as “blood levels almost equal to intraveneous administration”.
